Patent US20260207711A1, “FORMULATIONS, DEVICES AND METHODS FOR A GLP-1 AGONIST” (Nano Precision Medical, Inc., priority 2023, published 2026)

Test: Stability of the formulation remaining in terminated devices (purity, remaining concentration, mass balance by HPLC)
Type: physicochemical
Details: over 77 days; starting purity of semaglutide as received 94%
Source text: Each trace in the figure represents a separate measurement of a separate vial. At the end of the time period devices were terminated, disassembled and the internal compositions measured.
The mass balance numbers indicate that no appreciable amount of drug was lost in the form of degradants undetectable by HPLC, such a fibrils.
[…] Purities were […].

## semaglutide
  total loss in purity: 7-8%
